From the supplement of paper PMC10307832

Key:
Test in all cases: relative viability (nuclei count vs DMSO), 5 days (fraction); higher = more cells survive
CAP-232 + Vorinostat = compound: C[C@H]([C@@H](C(=O)N)NC(=O)[C@@H]1CSSC[C@@H](C(=O)N[C@H](C(=O)N[C@@H](C(=O)N[C@H](C(=O)N1)CCCCN)CC2=CNC3=CC=CC=C32)CC4=CC=C(C=C4)O)NC(=O)[C@@H](CC5=CC=CC=C5)N)O [CAP-232] + O=C(CCCCCCC(=O)Nc1ccccc1)NO [Vorinostat] (partner 1 µM)
Method in brief: (§1)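 Lung cancer cell lines, seeded in 1536-well plates, were treated the following day by pin tool with a single drug or with five library-drug doses (not always all listed) in √10 steps on top of a fixed anchor-drug dose. Cells were fixed and nuclei stained in one step after 5 days, and nuclei were counted. Relative viability is the nuclei count for treated wells divided by that for vehicle wells, reported as medians of duplicate plates.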

CAP-232 + Pemetrexed = compound: C[C@H]([C@@H](C(=O)N)NC(=O)[C@@H]1CSSC[C@@H](C(=O)N[C@H](C(=O)N[C@@H](C(=O)N[C@H](C(=O)N1)CCCCN)CC2=CNC3=CC=CC=C32)CC4=CC=C(C=C4)O)NC(=O)[C@@H](CC5=CC=CC=C5)N)O [CAP-232] + Nc1nc2[nH]cc(CCc3ccc(C(=O)N[C@@H](CCC(=O)O)C(=O)O)cc3)c2c(=O)[nH]1 [Pemetrexed] (partner 0.2 µM)
Method in brief: as §1

CAP-232 + Alpelisib = compound: C[C@H]([C@@H](C(=O)N)NC(=O)[C@@H]1CSSC[C@@H](C(=O)N[C@H](C(=O)N[C@@H](C(=O)N[C@H](C(=O)N1)CCCCN)CC2=CNC3=CC=CC=C32)CC4=CC=C(C=C4)O)NC(=O)[C@@H](CC5=CC=CC=C5)N)O [CAP-232] + Cc1nc(NC(=O)N2CCC[C@H]2C(N)=O)sc1-c1ccnc(C(C)(C)C(F)(F)F)c1 [Alpelisib] (partner 2 µM)
Method in brief: as §1

CAP-232 + Decitabine = compound: C[C@H]([C@@H](C(=O)N)NC(=O)[C@@H]1CSSC[C@@H](C(=O)N[C@H](C(=O)N[C@@H](C(=O)N[C@H](C(=O)N1)CCCCN)CC2=CNC3=CC=CC=C32)CC4=CC=C(C=C4)O)NC(=O)[C@@H](CC5=CC=CC=C5)N)O [CAP-232] + Nc1ncn([C@H]2C[C@H](O)[C@@H](CO)O2)c(=O)n1 [Decitabine] (partner 2 µM)
Method in brief: as §1

CAP-232 + Olaparib = compound: C[C@H]([C@@H](C(=O)N)NC(=O)[C@@H]1CSSC[C@@H](C(=O)N[C@H](C(=O)N[C@@H](C(=O)N[C@H](C(=O)N1)CCCCN)CC2=CNC3=CC=CC=C32)CC4=CC=C(C=C4)O)NC(=O)[C@@H](CC5=CC=CC=C5)N)O [CAP-232] + O=C(c1cc(Cc2n[nH]c(=O)c3ccccc23)ccc1F)N1CCN(C(=O)C2CC2)CC1 [Olaparib] (partner 8 µM)
Method in brief: as §1

Cell Line | relative viability (CAP-232 + Vorinostat; first compound 0.4 µM) | relative viability (CAP-232 + Vorinostat; first compound 1.265 µM) | relative viability (CAP-232 + Vorinostat; first compound 4 µM) | relative viability (CAP-232 + Vorinostat; first compound 12.65 µM) | relative viability (CAP-232 + Pemetrexed; first compound 0.4 µM) | relative viability (CAP-232 + Pemetrexed; first compound 1.265 µM) | relative viability (CAP-232 + Pemetrexed; first compound 4 µM) | relative viability (CAP-232 + Pemetrexed; first compound 12.65 µM) | relative viability (CAP-232 + Alpelisib; first compound 0.4 µM) | relative viability (CAP-232 + Alpelisib; first compound 1.265 µM) | relative viability (CAP-232 + Alpelisib; first compound 4 µM) | relative viability (CAP-232 + Alpelisib; first compound 12.65 µM) | relative viability (CAP-232 + Decitabine; first compound 0.4 µM) | relative viability (CAP-232 + Decitabine; first compound 1.265 µM) | relative viability (CAP-232 + Decitabine; first compound 4 µM) | relative viability (CAP-232 + Decitabine; first compound 12.65 µM) | relative viability (CAP-232 + Olaparib; first compound 0.4 µM) | relative viability (CAP-232 + Olaparib; first compound 1.265 µM) | relative viability (CAP-232 + Olaparib; first compound 4 µM) | relative viability (CAP-232 + Olaparib; first compound 12.65 µM)
NCI-H647 | 0.541 | 0.593 | 0.602 | 0.414 | 0.153 | 0.184 | 0.182 | 0.158 | 1.18 | 1.16 | 1.37 | 0.761 | 0.308 | 0.372 | 0.318 | 0.297 | 0.699 | 0.7 | 0.635 | 0.373
NCI-H2009 | 0.731 | 0.733 | 0.773 | 0.634 | 1.07 | 1.06 | 1.11 | 1 | 1.17 | 1.08 | 1.13 | 1.03 | 0.397 | 0.391 | 0.341 | 0.33 | 0.799 | 0.684 | 0.74 | 0.52
EPLC-272H |  | 0.615 | 0.545 | 0.158 |  | 0.411 | 0.316 | 0.178 | 0.895 | 0.959 | 0.988 | 0.941 | 0.348 | 0.334 | 0.344 | 0.355 |  | 0.935 | 0.761 | 0.31
NCI-H520 | 0.71 | 0.695 | 0.75 | 0.577 | 0.581 | 0.651 | 0.673 | 0.634 | 0.945 | 0.93 | 1.08 | 0.568 | 0.496 | 0.509 | 0.518 | 0.416 | 0.349 | 0.304 | 0.321 | 0.303
NCI-H2405 | 1.22 | 1.09 | 1.01 | 0.79 | 1.11 | 1.1 | 0.986 | 0.512 | 0.623 | 0.924 | 0.683 | 0.396 | 0.715 | 0.752 | 0.796 | 0.578 | 0.836 | 0.957 | 0.831 | 0.53
NCI-H2085 | 0.852 | 0.819 | 0.779 | 0.832 | 0.941 | 0.796 | 0.899 | 0.918 | 1.02 | 0.886 | 0.902 | 1.16 | 0.56 | 0.542 | 0.511 | 0.545 | 0.825 | 0.764 | 0.743 | 0.771
NCI-H322M | 0.91 | 0.894 | 0.932 | 1.11 | 0.621 | 0.645 | 0.599 | 0.788 | 0.778 | 0.753 | 0.709 | 0.755 | 0.706 | 0.654 | 0.701 | 0.704 | 0.939 | 0.746 | 0.745 | 0.697
NCI-H1944 | 0.614 | 0.673 | 0.559 | 0.552 | 0.569 | 0.517 | 0.601 | 0.573 | 0.956 | 0.806 | 0.794 | 0.782 | 0.426 | 0.424 | 0.363 | 0.424 | 0.385 | 0.368 | 0.411 | 0.357
LC-2-ad | 0.734 | 0.753 | 0.723 | 0.698 | 0.278 | 0.269 | 0.287 | 0.228 | 0.931 | 0.823 | 0.804 | 0.824 | 0.866 | 0.705 | 0.76 | 0.771 | 0.726 | 0.738 | 0.768 | 0.7
NCI-H358 | 0.755 | 0.709 | 0.71 | 0.375 | 0.151 | 0.171 | 0.187 | 0.187 | 0.508 | 0.821 | 0.868 | 0.789 | 0.184 | 0.198 | 0.229 | 0.18 | 0.454 | 0.677 | 0.783 | 0.465
NCI-H2170 | 0.823 | 0.835 | 0.886 | 0.794 | 0.247 | 0.261 | 0.267 | 0.244 | 0.81 | 0.865 | 0.831 | 0.76 | 0.496 | 0.492 | 0.492 | 0.486 | 0.622 | 0.588 | 0.738 | 0.636
NCI-H2342 | 0.688 | 0.647 | 0.623 | 0.742 | 0.798 | 0.745 | 0.779 | 0.835 |  |  |  |  | 0.714 | 0.81 | 0.736 | 0.666 | 0.447 | 0.441 | 0.46 | 0.396
SW 900 | 0.727 | 0.453 | 0.432 | 0.429 | 0.487 | 0.48 | 0.47 | 0.499 |  |  |  |  | 0.442 | 0.369 | 0.355 | 0.454 | 0.766 | 0.883 | 0.698 | 0.99
A-427 | 0.937 | 0.882 | 0.879 | 0.893 | 1.22 | 0.923 | 0.974 | 0.924 | 1.08 | 1.04 | 1.06 | 1.08 | 0.578 | 0.556 | 0.599 | 0.56 | 0.813 | 0.646 | 0.808 | 0.814
